Experimental data from patent US7994172B2, “[1H-pyrazolo[3, 4-D]pyrimidin-4-yl]-piperidine or -piperazine compounds as serine-theoronine kinase modulators (P70s6k, Atk1 and Atk2) for the treatment of immunological, inflammatory and proliferative diseases” (Exelixis, Inc., priority 2004, dated 2011).

Assays:
Assay type in all cases: biochemical
[1] = target: T1, human p70S6 kinase (p70S6K, kinase domain residues 1-421, T412E mutation) (Homo sapiens, UniProt P23443, T412E); assay: p70S6 kinase assay, Luciferase-Coupled Chemiluminescent Kinase assay (LCCA); conditions: 5 μM ATP, 12 nM p70S6K; read-out: p70S6K inhibition IC50
T1 construct: human p70S6 kinase domainresidues 1-421, containing a T412E mutation; made in house
T1 sequence (P23443 1-421 T412E): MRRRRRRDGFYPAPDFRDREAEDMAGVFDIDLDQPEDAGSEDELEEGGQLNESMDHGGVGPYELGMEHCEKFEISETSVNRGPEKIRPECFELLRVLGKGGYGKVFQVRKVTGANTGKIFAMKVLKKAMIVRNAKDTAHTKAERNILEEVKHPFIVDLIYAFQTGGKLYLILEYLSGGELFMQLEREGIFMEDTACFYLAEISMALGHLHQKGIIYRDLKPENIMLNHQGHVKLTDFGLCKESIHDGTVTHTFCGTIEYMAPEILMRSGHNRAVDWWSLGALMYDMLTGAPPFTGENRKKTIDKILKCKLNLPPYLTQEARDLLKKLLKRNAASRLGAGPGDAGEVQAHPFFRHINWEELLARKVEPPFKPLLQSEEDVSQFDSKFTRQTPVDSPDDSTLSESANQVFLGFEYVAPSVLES
Description: (§1) Kinase activity and compound inhibition are investigated using one or more of the three assay formats described below. The ATP concentrations for each assay are selected to be close to the Michaelis-Menten constant (KM) for each individual kinase. Dose-response experiments are performed at 10 different inhibitor concentrations in a 384-well plate format. The data are fitted to four-parameter equation (2) below; where Y is the observed signal, X is the inhibitor concentration, Min is the background signal in the absence of enzyme (0% enzyme activity), Max is the signal in the absence of inhibitor (100% enzyme activity), IC50 is the inhibitor concentration at 50% enzyme inhibition and H represents the empirical Hill's slope to measure the cooperativity. Typically H is close to unity. Y=Min+(Max−Min)/(1+(X/IC50)^H) Equation (2) p70S6 Kinase Assay
Biochemical activity of p70S6 kinase was assessed using a Luciferase-Coupled Chemiluminescent Kinase assay (LCCA) format. Kinase activity was measured as the percent ATP remaining following the kinase reaction. Remaining ATP was detected by luciferase-luciferin-coupled chemiluminescence. Specifically, the reaction was initiated by mixing test compounds, 5 μM ATP, 5 μM RRRLSSLRA peptide and 12 nM p70S6K (baculovirus expressed human p70S6 kinase domainresidues 1-421, containing a T412E mutation) in a 20 uL assay buffer (20 mM Tris-HCL pH 7.5, 10 mM MgCl2, 0.02% Triton X-100, 100 mM DTT, 2 mM MnCl2). The mixture is incubated at ambient temperature for 2 hours after which 20 μL luciferase-luciferin mix is added and the chemiluminescent signal read using a Wallac Victor^2 reader. The luciferase-luciferin mix consists of 50 mM HEPES, pH 7.8, 8.5 μg/mL oxalic acid (pH 7.8), 5 (or 50) mM DTT, 0.4% Triton X-100, 0.25 mg/mL coenzyme A, 63 uM AMP, 28 μg/mL luciferin and 40,000 units/mL luciferase.

[2] = target: T2, human Akt2 kinase (kinase domain residues K146-R480) (Homo sapiens, UniProt P31751); assay: Akt2 kinase assay, Luciferase-Coupled Chemiluminescent Kinase assay (LCCA); conditions: 2 μM ATP, 10 nM Akt2; read-out: Akt-2 inhibition IC50
T2 construct: human Akt2 kinase domain residues K146-R480; made in house
T2 sequence (P31751 146-480): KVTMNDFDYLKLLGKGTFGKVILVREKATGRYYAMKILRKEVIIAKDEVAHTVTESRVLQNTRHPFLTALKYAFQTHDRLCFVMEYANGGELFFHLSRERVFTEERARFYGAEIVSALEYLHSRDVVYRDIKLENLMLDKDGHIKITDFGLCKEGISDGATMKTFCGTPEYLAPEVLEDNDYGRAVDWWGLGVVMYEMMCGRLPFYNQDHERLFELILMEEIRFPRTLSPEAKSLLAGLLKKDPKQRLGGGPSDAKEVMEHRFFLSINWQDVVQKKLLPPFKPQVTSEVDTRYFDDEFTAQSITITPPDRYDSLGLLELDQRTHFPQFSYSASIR
Description: as §1
Biochemical activity of Akt2 kinase was assessed using a Luciferase-Coupled Chemiluminescent Kinase assay (LCCA) format. Kinase activity was measured as the percent ATP remaining following the kinase reaction. Remaining ATP was detected by luciferase-luciferin-coupled chemiluminescence. Specifically, the reaction was initiated by mixing test compounds, 2 μM ATP, 5 μM crosstide peptide and 10 nM Akt2 (baculovirus expressed human Akt2 kinase domain residues K146-R480) in a 20 uL assay buffer (20 mM Tris-HCL pH 7.5, 10 mM MgCl2, 0.03% Triton X-100, 1 mM DTT, 3 mM MnCl2). The mixture is incubated at ambient temperature for 2 hours after which 20 μL luciferase-luciferin mix is added and the chemiluminescent signal read using a Wallac Victor2 reader. The luciferase-luciferin mix consists of 50 mM HEPES, pH 7.8, 8.5 μg/mL oxalic acid (pH 7.8), 5 (or 50) mM DTT, 0.4% Triton X-100, 0.25 mg/mL coenzyme A, 63 uM AMP, 28 μg/mL luciferin and 40,000 units/mL luciferase.

[3] = target: T3, human Akt1 kinase (kinase domain residues R144-A480, activated with PDK1) (Homo sapiens, UniProt P31749); assay: Akt1 kinase assay, Luciferase-Coupled Chemiluminescent Kinase assay (LCCA); conditions: 1 μM ATP, 1.3 nM Akt1; read-out: Akt-1 inhibition IC50
T3 construct: made in house
T3 sequence (P31749 144-480): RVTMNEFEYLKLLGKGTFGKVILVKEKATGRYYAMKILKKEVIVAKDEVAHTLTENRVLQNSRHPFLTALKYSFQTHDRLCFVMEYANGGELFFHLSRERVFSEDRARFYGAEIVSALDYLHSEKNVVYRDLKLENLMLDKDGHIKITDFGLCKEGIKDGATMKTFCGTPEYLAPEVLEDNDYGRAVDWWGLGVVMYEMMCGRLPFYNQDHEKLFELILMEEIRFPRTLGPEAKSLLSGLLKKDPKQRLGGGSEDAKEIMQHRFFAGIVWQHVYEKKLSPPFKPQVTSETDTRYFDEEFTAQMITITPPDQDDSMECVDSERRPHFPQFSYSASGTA
Description: as §1
Biochemical activity of Akt1 kinase was assessed using a Luciferase-Coupled Chemiluminescent Kinase assay (LCCA) format. Kinase activity was measured as the percent ATP remaining following the kinase reaction. Remaining ATP was detected by luciferase-luciferin-coupled chemiluminescence. Specifically, the reaction was initiated by mixing test compounds, 1 μM ATP, 5 μM crosstide peptide and 1.3 nM Akt1 (baculovirus expressed human Akt1 kinase domain residues R144-A480, activated with PDK1) in a 20 uL assay buffer (20 mM Tris-HCL pH 7.5, 10 mM MgCl2, 0.01% Triton X-100, 1 mM DTT, 3 mM MnCl2). The mixture is incubated at ambient temperature for 3 hours after which 20 μL luciferase-luciferin mix is added and the chemiluminescent signal read using a Wallac Victor2 reader. The luciferase-luciferin mix consists of 50 mM HEPES, pH 7.8, 8.5 μg/mL oxalic acid (pH 7.8), 5 (or 50) mM DTT, 0.4% Triton X-100, 0.25 mg/mL coenzyme A, 63 uM AMP, 28 μg/mL luciferin and 40,000 units/mL luciferase.

COc1cc(OC)nc(CN2CCN(c3ncnc4[nH]nc(Br)c34)CC2)n1 [Entry 73, 4-(4-{[4,6-bis(methyloxy)pyrimidin-2-yl]methyl}piperazin-1-yl)-3-bromo-1H-pyrazolo[3,4-d]pyrimidine]
IC50 [1]: 0.5 to 2 µM
IC50 [2]: > 2 µM
IC50 [3]: > 2 µM

CC(C)(C)c1ccc(CN2CCN(c3ncnc4[nH]nc(Br)c34)CC2)cc1 [Entry 7, 3-bromo-4-(4-{[4-(1,1-dimethylethyl)phenyl]methyl}piperazin-1-yl)-1H-pyrazolo[3,4-d]pyrimidine]
IC50 [1]: < 0.05 µM
IC50 [2]: > 2 µM
IC50 [3]: > 2 µM

CN(C)C(=O)CN1CCN(c2ncnc3[nH]nc(Br)c23)CC1 [Entry 85, 2-[4-(3-bromo-1H-pyrazolo[3,4-d]pyrimidin-4-yl)piperazin-1-yl]-N,N-dimethylacetamide]
IC50 [1]: > 2 µM
IC50 [2]: > 2 µM
IC50 [3]: > 2 µM

Brc1n[nH]c2ncnc(N3CCN(Cc4cccc5ccccc45)CC3)c12 [Entry 63, 3-bromo-4-[4-(naphthalen-1-ylmethyl)piperazin-1-yl]-1H-pyrazolo[3,4-d]pyrimidine]
IC50 [1]: 0.05 to 0.5 µM
IC50 [2]: > 2 µM
IC50 [3]: > 2 µM

Brc1n[nH]c2ncnc(N3CCN(Cc4ccc5c(c4)OCCO5)CC3)c12 [Entry 36, 3-bromo-4-[4-(2,3-dihydro-1,4-benzodioxin-6-ylmethyl)piperazin-1-yl]-1H-pyrazolo[3,4-d]pyrimidine]
IC50 [1]: < 0.05 µM
IC50 [2]: > 2 µM
IC50 [3]: > 2 µM

O=C(c1ccco1)N1CCN(c2ncnc3[nH]nc(Br)c23)CC1 [Entry 66, 3-bromo-4-[4-(furan-2-ylcarbonyl)piperazin-1-yl]-1H-pyrazolo[3,4-d]pyrimidine]
IC50 [1]: 0.5 to 2 µM
IC50 [2]: > 2 µM
IC50 [3]: > 2 µM

O=C(CN1CCN(c2ncnc3[nH]nc(Br)c23)CC1)Nc1ccccn1 [Entry 51, 2-[4-(3-bromo-1H-pyrazolo[3,4-d]pyrimidin-4-yl)piperazin-1-yl]-N-pyridin-2-ylacetamide]
IC50 [1]: 0.05 to 0.5 µM
IC50 [2]: > 2 µM
IC50 [3]: > 2 µM

O=C(/C=C/c1ccccc1)N1CCN(c2ncnc3[nH]nc(Br)c23)CC1 [Entry 43, 3-bromo-4-{4-[(2E)-3-phenylprop-2-enoyl]piperazin-1-yl}-1H-pyrazolo[3,4-d]pyrimidine]
IC50 [1]: < 0.05 µM
IC50 [2]: > 2 µM
IC50 [3]: > 2 µM

Brc1n[nH]c2ncnc(N3CCN(Cc4ccc(OCc5ccccc5)cc4)CC3)c12 [Entry 79, 3-bromo-4-[4-({4-[(phenylmethyl)oxy]phenyl}methyl)piperazin-1-yl]-1H-pyrazolo[3,4-d]pyrimidine]
IC50 [1]: > 2 µM
IC50 [2]: > 2 µM
IC50 [3]: > 2 µM

COCCCN1CCN(c2ncnc3[nH]nc(Br)c23)CC1 [Entry 76, 3-bromo-4-{4-[3-(methyloxy)propyl]piperazin-1-yl}-1H-pyrazolo[3,4-d]pyrimidine]
IC50 [1]: > 2 µM
IC50 [2]: > 2 µM
IC50 [3]: > 2 µM

N#Cc1cccc(CN2CCN(c3ncnc4[nH]nc(Br)c34)CC2)c1 [Entry 55, 3-{[4-(3-bromo-1H-pyrazolo[3,4-d]pyrimidin-4-yl)piperazin-1-yl]methyl}benzonitrile]
IC50 [1]: 0.05 to 0.5 µM
IC50 [2]: > 2 µM
IC50 [3]: > 2 µM

Clc1ccccc1CN1CCN(c2ncnc3[nH]nc(Br)c23)CC1 [Entry 46, 3-bromo-4-{4-[(2-chlorophenyl)methyl]piperazin-1-yl}-1H-pyrazolo[3,4-d]pyrimidine]
IC50 [1]: < 0.05 µM
IC50 [2]: > 2 µM
IC50 [3]: > 2 µM

CC(c1ccccc1)N1CCN(c2ncnc3[nH]nc(Br)c23)CC1 (centres unmarked) [Entry 57, 3-bromo-4-[4-(1-phenylethyl)piperazin-1-yl]-1H-pyrazolo[3,4-d]pyrimidine]
IC50 [1]: 0.05 to 0.5 µM
IC50 [2]: > 2 µM
IC50 [3]: > 2 µM

Clc1ccc(CN2CCN(c3ncnc4[nH]nc(Br)c34)CC2)c(Cl)c1 [Entry 47, 3-bromo-4-{4-[(2,4-dichlorophenyl)methyl]piperazin-1-yl}-1H-pyrazolo[3,4-d]pyrimidine]
IC50 [1]: < 0.05 µM
IC50 [2]: > 2 µM
IC50 [3]: 0.5 to 2 µM

Brc1n[nH]c2ncnc(N3CCN(Cc4ccncc4)CC3)c12 [Entry 58, 3-bromo-4-[4-(pyridin-4-ylmethyl)piperazin-1-yl]-1H-pyrazolo[3,4-d]pyrimidine]
IC50 [1]: 0.05 to 0.5 µM
IC50 [2]: > 2 µM
IC50 [3]: > 2 µM

Brc1n[nH]c2ncnc(N3CCN(Cc4cccc(OCc5ccccc5)c4)CC3)c12 [Entry 62, 3-bromo-4-[4-({3-[(phenylmethyl)oxy]phenyl}methyl)piperazin-1-yl]-1H-pyrazolo[3,4-d]pyrimidine]
IC50 [1]: 0.05 to 0.5 µM
IC50 [2]: > 2 µM
IC50 [3]: > 2 µM

C[C@H]1CN(c2ncnc3[nH]nc(Br)c23)CCN1Cc1ccc(Cl)cc1 [Entry 31, 3-bromo-4-{(3S)-4-[(4-chlorophenyl)methyl]-3-methylpiperazin-1-yl}-1H-pyrazolo[3,4-d]pyrimidine]
IC50 [1]: < 0.05 µM
IC50 [2]: > 2 µM
IC50 [3]: 0.5 to 2 µM

Brc1n[nH]c2ncnc(N3CCN(C4CCCCc5ccccc54)CC3)c12 (centres unmarked) [Entry 78, 3-bromo-4-[4-(6,7,8,9-tetrahydro-5H-benzocyclohepten-5-yl)piperazin-1-yl]-1H-pyrazolo[3,4-d]pyrimidine]
IC50 [1]: > 2 µM
IC50 [2]: > 2 µM
IC50 [3]: > 2 µM

COc1ccc(CN2CCN(c3ncnc4[nH]nc(Br)c34)CC2)cc1 [Entry 32, 3-bromo-4-(4-{[4-(methyloxy)phenyl]methyl}piperazin-1-yl)-1H-pyrazolo[3,4-d]pyrimidine]
IC50 [1]: < 0.05 µM
IC50 [2]: > 2 µM
IC50 [3]: 0.5 to 2 µM

COCCCNC(=O)c1ccc(CN2CCN(c3ncnc4[nH]nc(Br)c34)CC2)cc1 [Entry 82, 4-{[4-(3-bromo-1H-pyrazolo[3,4-d]pyrimidin-4-yl)piperazin-1-yl]methyl}-N-[3-(methyloxy)propyl]benzamide]
IC50 [1]: > 2 µM
IC50 [3]: > 2 µM

CN(C)CCCC(c1ccc(Cl)cc1)C1CCN(c2ncnc3[nH]nc(Br)c23)CC1 (centres unmarked) [Entry 94, 4-[1-(3-bromo-1H-pyrazolo[3,4-d]pyrimidin-4-yl)piperidin-4-yl]-4-(4-chlorophenyl)-N,N-dimethylbutan-1-amine]
IC50 [1]: < 0.05 µM
IC50 [3]: < 0.05 µM

CN(C)CCNC(=O)N(c1ccc(Br)c(F)c1)C1CCN(c2ncnc3[nH]nc(Br)c23)CC1 [Entry 87, N-(4-bromo-3-fluorophenyl)-N-[1-(3-bromo-1H-pyrazolo[3,4-d]pyrimidin-4-yl)piperidin-4-yl]-N′-[2-(dimethylamino)ethyl]urea]
IC50 [1]: < 0.05 µM
IC50 [3]: < 0.05 µM

CN(C)CCO[C@@H](c1ccc(Cl)c(F)c1)C1CCN(c2ncnc3[nH]nc(Br)c23)CC1 [Entry 92, 2-{[(R)-[1-(3-bromo-1H-pyrazolo[3,4-d]pyrimidin-4-yl)piperidin-4-yl](4-chloro-3-fluorophenyl)methyl]oxy}-N,N-dimethylethanamine]
IC50 [1]: < 0.05 µM
IC50 [3]: < 0.05 µM
